Measured values from patent publication US20070092577A1, “Dietary calcium for reducing the production of reactive oxygen species” (University of Tennessee Research Foundation, priority 2005, published 2007).

Columns and labels:
Assay type in all cases: cell-based, murine
[1] = system: [Ca^2+]i in cultured 3T3-L1 adipocytes; assay: Intracellular calcium in cultured adipocytes (fura-2); details: 4 hours
Protocol: 3T3-L1 preadipocytes were incubated at a density of 8000 cells/cm^2 (10 cm^2 dish) and grown in Dulbecco's modified Eagle's medium (DMEM) containing 10% FBS and antibiotics (adipocyte medium) at 37° C. in 5% CO2 in air. Confluent preadipocytes were induced to differentiate with a standard differentiation medium consisting of DMEM-F 10 (1:1, vol/vol) medium supplemented with 1% FBS, 1 μM dexamethasone, IBMX (0.5 mM) and antibiotics (1% Penicillin-Streptomycin). Preadipocytes were maintained in this differentiation medium for 3 days and subsequently cultured in adipocyte medium. Cultures were re-fed every 2-3 days to allow 90% of cells to reach full differentiation before conducting chemical treatment. Chemicals were freshly diluted in adipocyte medium before treatment. Cells were washed with fresh adipocyte medium, re-fed with medium containing the different treatments, and incubated at 37° C. in 5% CO2 in air before analysis. Cell viability was measured via trypan blue exclusion. [Ca^2+]i in adipocytes was measured using a fura-2 dual-wavelength fluorescence imaging system. Cells were plated in 35-mm dishes […]). […] Cells were loaded with fura-2 acetoxymethyl ester (fura-2 AM) (10 μmol/L) in the same buffer for 2 h at 37° C. in a dark incubator with 5% CO2. To remove extracellular dye, cells were rinsed with HBSS three times and then post-incubated at room temperature for an additional 1 h for complete hydrolysis of cytoplasmic fura-2 AM. The dishes with dye-loaded cells were mounted on the stage of Nikon TMS-F fluorescence inverted microscope with a Cohu model 4915 charge-coupled device (CCD) camera. Fluorescent images were captured alternatively at excitation wavelengths of 340 and 380 nm with an emission wavelength of 520 nm. After establishment of a stable baseline, the responses to 1α, 25-(OH)2-D3 was determined. [Ca^2+]i was calculated using a ratio equation as described previously. Each analysis evaluated responses of 5 representative whole cells. Images were analyzed with […]2 version 4.62 imaging software (Intracellular Imaging, Cincinnati, Ohio). […]

[2] = system: ROS production in cultured 3T3-L1 adipocytes; assay: ROS production in cultured adipocytes (H2-DCFDA); details: 48 hours
Protocol: 3T3-L1 preadipocytes were incubated at a density of 8000 cells/cm^2 (10 cm^2 dish) and grown in Dulbecco's modified Eagle's medium (DMEM) containing 10% FBS and antibiotics (adipocyte medium) at 37° C. in 5% CO2 in air. Confluent preadipocytes were induced to differentiate with a standard differentiation medium consisting of DMEM-F 10 (1:1, vol/vol) medium supplemented with 1% FBS, 1 μM dexamethasone, IBMX (0.5 mM) and antibiotics (1% Penicillin-Streptomycin). Preadipocytes were maintained in this differentiation medium for 3 days and subsequently cultured in adipocyte medium. Cultures were re-fed every 2-3 days to allow 90% of cells to reach full differentiation before conducting chemical treatment. Chemicals were freshly diluted in adipocyte medium before treatment. Cells were washed with fresh adipocyte medium, re-fed with medium containing the different treatments, and incubated at 37° C. in 5% CO2 in air before analysis. Cell viability was measured via trypan blue exclusion. […] Cells were loaded with H2-DCFDA (2 μmol/L) 30 minute before the end of the incubation period (48 h). After washing twice with PBS, cells were scraped and disrupted by sonication on ice (20s). Fluorescence (emission 543 nm or 527 nm) and DNA content were then measured as described previously. The intensity of fluorescence was expressed as arbitary units per ng DNA.

cyclin A = assay: Cyclin A expression in 3T3-L1 adipocytes; details: added to glucose 30 mmol/L, 48 hours; nifedipine 10 μmol/L
Protocol: 3T3-L1 preadipocytes were incubated at a density of 8000 cells/cm^2 (10 cm^2 dish) and grown in Dulbecco's modified Eagle's medium (DMEM) containing 10% FBS and antibiotics (adipocyte medium) at 37° C. in 5% CO2 in air. Confluent preadipocytes were induced to differentiate with a standard differentiation medium consisting of DMEM-F 10 (1:1, vol/vol) medium supplemented with 1% FBS, 1 μM dexamethasone, IBMX (0.5 mM) and antibiotics (1% Penicillin-Streptomycin). Preadipocytes were maintained in this differentiation medium for 3 days and subsequently cultured in adipocyte medium. Cultures were re-fed every 2-3 days to allow 90% of cells to reach full differentiation before conducting chemical treatment. Chemicals were freshly diluted in adipocyte medium before treatment. […] Cell viability was measured via trypan blue exclusion. Adipocyte 18s, cyclin A, NADPH oxidase, and UCP2 were quantitatively measured using a Smart Cycler Real Time PCR System (Cepheid, Sunnyvale, Calif.) with a TaqMan 1000 Core Reagent Kit (Applied Biosystems, Branchburg, N.J.). […] Reactions of quantitative RT-PCR for standards and unknown samples were also performed according to the instructions of Smart Cycler System (Cepheid, Sunnyvale, Calif.) and TaqMan Real Time PCR Core Kit (Applied Biosystems, Branchburg, N.J.). The mRNA quantitation for each sample was further normalized using the corresponding 18s quantitation.

SMILES: OO [H2O2, hydrogen peroxide]
- increase in [Ca^2+]i ([1]; H2O2 100 nmol/L or glucose 30 mmol/L, p<0.001): 5 fold

SMILES: Cc1c(C)c2c(c(C)c1O)CC[C@@](C)(CCC[C@H](C)CCC[C@H](C)CCCC(C)C)O2 [α-tocopherol]
- effect on H2O2 induced increase in [Ca^2+]i ([1]; α-tocopherol 1 μmol/L with H2O2 100 nmol/L): reversed
- effect on glucose induced increase in [Ca^2+]i ([1]; α-tocopherol 1 μmol/L with glucose 30 mmol/L): partially blocked
- effect on ROS production in all groups ([2]; α-tocopherol 1 μmol/L): inhibited

SMILES: C=C1/C(=C\C=C2/CCC[C@]3(C)[C@@H]([C@H](C)CCCC(C)(C)O)CC[C@@H]23)C[C@@H](O)C[C@@H]1O [calcitriol, 1, 25-Dihydroxyvitamin D]
- effect on high glucose induced ROS production ([2]; added to glucose 30 mmol/L, nifedipine 10 μmol/L): greater stimulation of ROS production than either glucose alone or glucose plus GDP
- effect on glucose stimulated cyclin A expression (cyclin A): augmented
